Target: T1, Phenylalanine--tRNA ligase, mitochondrial (Homo sapiens, UniProt O95363)
T1 sequence (O95363 whole entry): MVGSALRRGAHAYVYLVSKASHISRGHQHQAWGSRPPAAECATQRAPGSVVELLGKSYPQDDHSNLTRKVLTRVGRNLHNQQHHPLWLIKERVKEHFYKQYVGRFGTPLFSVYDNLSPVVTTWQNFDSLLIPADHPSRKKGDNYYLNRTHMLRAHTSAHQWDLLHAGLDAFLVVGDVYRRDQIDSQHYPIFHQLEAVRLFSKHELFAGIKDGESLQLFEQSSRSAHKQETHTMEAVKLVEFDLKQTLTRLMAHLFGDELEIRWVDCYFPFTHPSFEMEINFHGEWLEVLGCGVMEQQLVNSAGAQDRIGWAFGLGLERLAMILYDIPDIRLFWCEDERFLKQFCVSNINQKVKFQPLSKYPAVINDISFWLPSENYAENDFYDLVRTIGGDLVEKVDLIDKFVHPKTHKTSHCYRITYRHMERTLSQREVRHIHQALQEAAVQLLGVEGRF
Assay: Inhibitory activity against human phenylalanyl-tRNA synthetase was determined

Row | Compound | IC50 [µM]
1 | O=C1[C@@H]2C(c3ccccc3)OC3(C(=O)c4ccccc4C3=O)[C@@H]2C(=O)N1c1ccc([N+](=O)[O-])cc1 (some centres undefined) | > 100
2 | Cc1ccc(N2C(=O)[C@@H]3C(c4ccccc4)OC4(C(=O)c5ccccc5C4=O)[C@@H]3C2=O)cc1Cl (some centres undefined) | > 100
3 | O=C1[C@H]2[C@H](c3ccccc3)NC3(C(=O)c4ccccc4C3=O)[C@H]2C(=O)N1c1ccc(Cl)c(Cl)c1 | > 100
4 | O=C1[C@@H]2C(c3ccc(Cl)cc3)OC3(C(=O)c4ccccc4C3=O)[C@@H]2C(=O)N1c1ccc(Cl)c(C(F)(F)F)c1 (some centres undefined) | > 100
5 | O=C(c1ccccc1)C1N[C@@H](c2ccccc2)[C@H]2C(=O)N(c3ccc(Cl)c(Cl)c3)C(=O)[C@@H]12 (some centres undefined) | > 100
6 | COc1ccc(N2C(=O)[C@@H]3C(c4ccccc4)OC4(C(=O)c5ccccc5C4=O)[C@@H]3C2=O)cc1 (some centres undefined) | > 100
7 | O=C1[C@@H]2C(c3ccccc3)OC3(C(=O)c4ccccc4C3=O)[C@@H]2C(=O)N1c1ccc(Cl)c(C(F)(F)F)c1 (some centres undefined) | > 100
8 | Cc1ccc(C2OC3(C(=O)c4ccccc4C3=O)[C@@H]3C(=O)N(c4ccc5c(c4)OCO5)C(=O)[C@H]23)cc1 (some centres undefined) | > 100
9 | COc1ccccc1N1C(=O)C2C(c3ccccc3)OC3(C(=O)c4ccccc4C3=O)C2C1=O (centres undefined) | > 100
10 | O=C1[C@H]2[C@@H](C(=O)N1c1ccc(Cl)c(Cl)c1)C1(Cc3ccccc3C1)N[C@H]2c1ccccc1 | > 100
11 | O=C(c1ccccc1)C1N[C@@H](c2ccccc2)[C@@H]2C(=O)N(c3ccc(Cl)c(Cl)c3)C(=O)[C@H]12 (some centres undefined) | > 100

Now from value to molecule:

Row | IC50 [µM] | Compound
12 | > 100 | O=C1[C@H]2[C@@H](C(=O)N1c1ccc(Cl)c(Cl)c1)C1(N[C@H]2c2ccccc2)C(=O)c2ccccc2C1=O
13 | > 100 | Cc1ccc(N2C(=O)[C@H]3[C@H](c4ccccc4)NC4(C(=O)c5ccccc5C4=O)[C@H]3C2=O)cc1Cl
14 | > 100 | Cc1ccc(N2C(=O)[C@H]3[C@@H](C2=O)C2(N[C@H]3c3ccccc3)C(=O)c3ccccc3C2=O)cc1Cl
15 | > 100 | COc1ccccc1N1C(=O)[C@@H]2C(c3ccccc3C)OC3(C(=O)c4ccccc4C3=O)[C@@H]2C1=O (some centres undefined)
16 | > 100 | Cc1ccc(N2C(=O)[C@H]3C(c4ccccc4)OC4(C(=O)c5ccccc5C4=O)[C@H]3C2=O)cc1Cl (some centres undefined)
17 | > 100 | COC(=O)C1N[C@@H](c2ccccc2)[C@H]2C(=O)N(c3ccc(Cl)c(Cl)c3)C(=O)[C@@H]12 (some centres undefined)
18 | > 100 | O=C1C2C(c3ccccc3)OC3(C(=O)c4ccccc4C3=O)C2C(=O)N1c1ccc2c(c1)OCO2 (centres undefined)
19 | > 100 | O=C1[C@H]2[C@H](c3ccccc3)NC3(Cc4ccccc4C3)[C@H]2C(=O)N1c1ccc(Cl)c(Cl)c1

Source: ChEMBL document CHEMBL1147613, “A series of spirocyclic analogues as potent inhibitors of bacterial phenylalanyl-tRNA synthetases” (Bioorg Med Chem Lett, 2004)
